This passage reports IC50, Ke and Ratio results from ChEMBL document CHEMBL1122316, “Different receptor sites mediate opioid agonism and antagonism” (J Med Chem, 1983).

The target in data set [1] is Opioid receptors; mu/kappa/delta (Homo sapiens, UniProt P41145+P41143+P35372). Description: Evaluated the ability to protect against the irreversible antagonism of morphines effects by beta-FNA in guinea pig ileal longitudinal muscle. Format: functional, tissue-based, Cavia porcellus, Muscle tissue.
The nature of data set [2]: Compound was evaluated for equilibrium constant, Ke. Format: ADME.
Data set [3] in a line: Compound was tested for ability to protect against the irreversible antagonism of morphine''s effects by beta-FNA in guinea pig ileum at 1 uM concentration. Type of data set: functional.
Data set [4] is described as follows: Compound was tested for ability to protect against the irreversible antagonism of morphine''s effects by beta-FNA in guinea pig ileum at 200 nM concentration. Format: functional.
A short description of data set [5]: Compound was tested for ability to protect against the irreversible antagonism of morphine''s effects by beta-FNA in guinea pig ileum at 10 nM concentration, ratio is IC50 after treatment/control IC50. Type of data set: functional.
Data set [6] in a line: Compound was tested for ability to protect against the irreversible antagonism of morphine''s effects by beta-FNA in guinea pig ileum at 2 nM concentration. Format: functional.
Data set [7] can be described thus: Compound was tested for ability to protect against the irreversible antagonism of morphine''s effects by beta-FNA in guinea pig ileum at 20 nM concentration. Format: functional.
Data set [8] in a line: Effect of protecte expressed as morphine IC50 ratio (IC50 after treatment/control IC50) at 200 nM concentration. Type of data set: functional.

Regarding `C=CCN1CC[C@]23c4c5ccc(O)c4O[C@H]2[C@@H](O)C=C[C@H]3[C@H]1C5` [NALORPHINE], the IC50 in data set [1] is reported as 28 nM. In data set [2], the Ke was 4.5. For the same molecule, the Ratio in data set [3] is recorded as 1.4; in data set [4], 1.9.

`CCOc1ccc2c(c1)C1(C)CCN(CC3CC3)C(C2=O)C1C` (stereo unspecified) [ETHYLKETAZOCINE]: in data set [5], the Ratio stood at 4.6. For the same molecule, in data set [1], the IC50 is reported as 0.6 nM.

In data set [1], `COC(=O)/C=C/C(=O)N[C@@H]1CC[C@@]2(O)C3Cc4ccc(O)c5c4C2(CCN3C)C1O5` (stereo partly specified) had an IC50 of 22 nM. In addition, the Ratio in data set [3] is 5.2.

In the case of `O=C1CC[C@@]2(O)[C@H]3Cc4ccc(O)c5c4[C@@]2(CCN3CC2CC2)[C@H]1O5` [NALTREXONE], the values for the Ratio in data set [6], in data set [7] and in data set [8] were 2.4, 1 and 1, respectively. In data set [2], this molecule had a Ke of 0.38.

Take `C=CCN1CC[C@]23c4c5ccc(O)c4O[C@H]2C(=O)CC[C@@]3(O)[C@H]1C5` [NALOXONE]: the Ratio in data set [6] was found to be 3.4; in data set [7] it was 1.9; in data set [8], 1.1. Further, in data set [2], the Ke turned out to be 1.2.
